The values below come from US9242941B2, “Alkyl, fluoroalkyl-1,4-benzodiazepinone compounds” (BRISTOL-MYERS SQUIBB COMPANY, priority 2012, dated 2016).

One series deals with human Notch 1. Description: Notch-CBF1 Transactivation Assay (Notch 1). In kind it is cell-based. Particulars: read-out: Notch 1 IC50; Notch-CBF1 transactivation luciferase assay in transfected HeLa cells; some values are an average of N experiments. An excerpt: (§1) Notch-CBF1 Transactivation Assay
(§2) The Notch-CBF1 (C-promoter binding factor I) cell based transactivation assay is based on the ability of the released Notch intracellular domain fragments (NICDs) to function as transcription factors in conjunction with CBF1 and other nuclear factors. Luciferase assays were used to measure the antagonism of Notch-CBF1 transcriptional activity. HeLa cervical cancer cells are transiently co-transfected with pCDNA3.1/Hygro plasmids containing truncated Notch 1, Notch 2, Notch 3, or Notch 4 receptors and a PGL3 luciferase reporter vector containing 4 copies of CBF1 binding site. The cells were then tested for Notch-CBF1 activity in the absence or presence of test compounds. HeLa cells, maintained in DMEM (high glucose with HEPES), 1× glutamine/penicillin/streptomycin and 10% Fetal Bovine serum, were transiently transfected in a T175 Flask (4.5×10^6 cells/flask) using the Monster Transfection Kit (Minis #MIR2906) according to manufacturers specifications. Table 13 denotes respective DNA quantity for the transfections.
(§3) Assay media (5 μL) containing test compounds in final concentrations ranging from 5 μM to 8.4×10^−5 μM (3 fold serial dilutions) were added to the cells and the cell plates were then incubated for 18 hours at 37° C. and 5% CO2. Control wells contained DMSO vehicle (total counts) or 0.5 μM of an in-house small molecule inhibitor (background counts). Duplicates were used for each sample. Luciferase activity was measured after a 20-minute incubation with 50 μl STEADY-GLO® luciferase reagents according to manufacturer's specifications (Promega, Cat. #E2550) and analyzed by Envision plate reader (PerkinElmer, Boston, Mass.).
(§4) The antagonist effect of compounds was expressed as 100×[1−(average sample−average background)/(average total−average background)] where sample is the luciferase activity in the presence of test compound, background is equal to the luciferase activity in the presence of the small molecule inhibitor control and the total is signal induced in DMSO wells.

Series [1] can be described thus: human metabolic stability half-life assay. The following applies: microsomes, human liver microsomes. As to the method: Metabolic Stability Half-Life Panel
Incubation with Liver Microsomes

The test system of another series is human Notch 3. The series can be described thus: Notch-CBF1 Transactivation Assay (Notch 3). In kind it is cell-based. The following applies: read-out: Notch 3 IC50; Notch-CBF1 transactivation luciferase assay in transfected HeLa cells; some values are an average of N experiments.
Text: as §1, §2, §3, §4

For series [2], the system named is Human T-cell acute lymphoblastic leukemia cell line TALL-1. The series can be described thus: Human Tumor Xenograft Models in Mice: TALL-1. The following applies: for Antitumor Activity in TALL-1 (LCK), QD dosing / Antitumor Activity in TALL-1 (LCK), BID dosing: Log Cell Kill, oral administration, schedule QDx10, dose unit not given; for Antitumor Activity in TALL-1 (LCK), QD dosing: dose 20 (Ex 1, 52), 12 (Ex 10), 40 (Ex 40); for antitumor activity in the Human Tumor Xenograft Models in mice: oral administration (PO) either BID and/or QD, Table 24 (TALL-1), result in words; for Antitumor Activity in TALL-1 (LCK), BID dosing: dose 20 (Ex 35, 37). It is filed as in vivo. For orientation: In xenograft studies the graft and the host belong to different species.

Setting [3] is: pH 7.4, CYP-mediated metabolic stability half life, NADPH-dependent.
Where [4] appears, read: pH 7.4, HLM (t1/2, min), CYP-mediated (NADPH-dependent), 0.5 μM compound, 45 min time course, some values are an average of N experiments.

Where only a bound is given, the exact number is not on record here.

The IC50 is the concentration that gives 50% inhibition. A word on the half-life: it is the time in which the quantity being followed falls by half. A low value points to rapid decline. On to `Cc1cccc2c1NC(=O)[C@@H](NC(=O)[C@H](CCC(F)(F)F)[C@H](CC1CC1)C(N)=O)N=C2c1cccc(F)c1` [Example 10, (2R,3S)-3-(Cyclopropylmethyl)-N-((3S)-5-(3-fluorophenyl)-9-methyl-2-oxo-2,3-dihydro-1H-1,4-benzodiazepin-3-yl)-2-(3,3,3-trifluoropropyl)succinamide], for which the IC50 with human Notch 1 worked out at 4 nM; in the series on human Notch 3, 9.7 nM. The half-life at 0.5 µM in series [1] (setting [3]) is at least 30 min; in series [1] (setting [4]), 72 min. Also, the “Antitumor Activity in TALL-1 (LCK), QD dosing” value in series [2] is above 2.8. Moreover, the “antitumor activity in the Human Tumor Xenograft Models in mice” value (“antitumor activity … in mice” below) in series [2] is given as “showed antitumor activity”.
For the compound `COc1cccc2c1NC(=O)[C@@H](NC(=O)[C@H](CCC(F)(F)F)[C@H](CC1CC1)C(N)=O)N=C2c1cccc(C)c1` [Example 31, (2R,3S)-3-(Cyclopropylmethyl)-N-((3S)-9-methoxy-5-(3-methylphenyl)-2-oxo-2,3-dihydro-1H-1,4-benzodiazepin-3-yl)-2-(3,3,3-trifluoropropyl)succinamide], the figures for the IC50 in the series on human Notch 1 and in the series on human Notch 3 were 5.6 nM and 7.9 nM, respectively. The half-life at 0.5 µM in series [1] (setting [3]) is at least 30 min; in series [1] (setting [4]) it was 52 min.
Regarding `CCC[C@H](C(N)=O)[C@@H](CCC(F)(F)F)C(=O)N[C@H]1N=C(c2ccccc2)c2cccc(C#N)c2NC1=O` [Example 32, (2R,3S)—N-((3S)-9-Cyano-2-oxo-5-phenyl-2,3-dihydro-1H-1,4-benzodiazepin-3-yl)-3-propyl-2-(3,3,3-trifluoropropyl)succinamide], the IC50 in the series on human Notch 1 came out at 8.3 nM; in the series with human Notch 3, 19.7 nM. Further, the half-life at 0.5 µM in series [1] (setting [3]) is at least 30 min; in series [1] (setting [4]) it was 55 min.
Regarding `COc1cccc2c1NC(=O)[C@@H](NC(=O)[C@H](CCC(F)(F)F)[C@H](CC1(C)CC1)C(N)=O)N=C2c1ccccc1` [Example 33, (2R,3S)—N-((3S)-9-Methoxy-2-oxo-5-phenyl-2,3-dihydro-1H-1,4-benzodiazepin-3-yl)-3-((1-methylcyclopropyl)methyl)-2-(3,3,3-trifluoropropyl)succinamide], the IC50 in the series on human Notch 1 is 3.8 nM; with human Notch 3 it was 5.9 nM. Besides, the half-life at 0.5 µM is at least 30 min in series [1] (setting [3]) and 47 min in series [1] (setting [4]).
Take `NC(=O)[C@@H](CC1CC1)[C@@H](CCC(F)(F)F)C(=O)N[C@H]1N=C(c2ccccc2)c2ccc(Cl)c(Cl)c2NC1=O` [Example 34, (2R,3S)-3-(Cyclopropylmethyl)-N-((3S)-8,9-dichloro-2-oxo-5-phenyl-2,3-dihydro-1H-1,4-benzodiazepin-3-yl)-2-(3,3,3-trifluoropropyl)succinamide]: the IC50 turned out to be 4.7 nM in the series on human Notch 1 and 7.4 nM in the series with human Notch 3. The figures for the half-life at 0.5 µM in series [1] (setting [3]) and in series [1] (setting [4]) were at least 30 min and above 120 min, respectively.
Regarding `CCC[C@H](C(N)=O)[C@@H](CCC(F)(F)F)C(=O)N[C@H]1N=C(c2ccccc2)c2cccc(C(F)(F)F)c2NC1=O` [Example 35, (2R,3S)—N-((3S)-2-Oxo-5-phenyl-9-(trifluoromethyl)-2,3-dihydro-1H-1,4-benzodiazepin-3-yl)-3-propyl-2-(3,3,3-trifluoropropyl)succinamide], the IC50 in the series on human Notch 1 is 16.1 nM; with human Notch 3, 12.9 nM. Further, the half-life at 0.5 µM in series [1] (setting [3]) is at least 30 min; in series [1] (setting [4]) it was 36 min. In addition, in series [2], the “Antitumor Activity in TALL-1 (LCK), BID dosing” value came to 3.1. The “antitumor activity … in mice” value in series [2] was “showed antitumor activity”.
With `NC(=O)[C@@H](CC1CC1)[C@@H](CCC(F)(F)F)C(=O)N[C@H]1N=C(c2ccccc2)c2cccc(C(F)(F)F)c2NC1=O` [Example 36, (2R,3S)-3-(Cyclopropylmethyl)-N-((3S)-2-oxo-5-phenyl-9-(trifluoromethyl)-2,3-dihydro-1H-1,4-benzodiazepin-3-yl)-2-(3,3,3-trifluoropropyl)succinamide], the half-maximal inhibitory concentration (IC50) turned out to be 7.9 nM with human Notch 1 and 8.3 nM in the series with human Notch 3. Besides, the half-life at 0.5 µM in series [1] (setting [3]) was at least 30 min; in series [1] (setting [4]) it was above 120 min.
As for `CCC[C@H](C(N)=O)[C@@H](CCC(F)(F)F)C(=O)N[C@H]1N=C(c2ccccc2)c2cccc(F)c2NC1=O` [Example 37, (2R,3S)—N-((3S)-9-Fluoro-2-oxo-5-phenyl-2,3-dihydro-1H-1,4-benzodiazepin-3-yl)-3-propyl-2-(3,3,3-trifluoropropyl)succinamide], the IC50 in the series on human Notch 1 stood at 4.4 nM; in the series with human Notch 3, 11.3 nM. Further, the half-life at 0.5 µM in series [1] (setting [3]) is at least 30 min; in series [1] (setting [4]), 43 min. Also, the “Antitumor Activity in TALL-1 (LCK), BID dosing” value in series [2] is 2.0. Also, the “antitumor activity … in mice” value in series [2] was “showed antitumor activity”.
For `COc1cccc2c1NC(=O)[C@@H](NC(=O)[C@H](CCC(F)(F)F)[C@H](CC1CC1)C(N)=O)N=C2c1ccccc1` [Example 38, (2R,3S)-3-(Cyclopropylmethyl)-N-((3S)-9-methoxy-2-oxo-5-phenyl-2,3-dihydro-1H-1,4-benzodiazepin-3-yl)-2-(3,3,3-trifluoropropyl)succinamide], the IC50 is 2.3 nM in the series with human Notch 1 and 3.3 nM with human Notch 3. Also, the figures for the half-life at 0.5 µM in series [1] (setting [3]) and in series [1] (setting [4]) were at least 30 min and 70 min, respectively.
Turning to `CCC[C@H](C(N)=O)[C@@H](CCC(F)(F)F)C(=O)N[C@H]1N=C(c2ccccc2)c2ccc(Br)c(OC)c2NC1=O` [Example 39, (2R,3S)—N-((3S)-8-Bromo-9-methoxy-2-oxo-5-phenyl-2,3-dihydro-1H-1,4-benzodiazepin-3-yl)-3-propyl-2-(3,3,3-trifluoropropyl)succinamide], the IC50 stood at 13.4 nM in the series with human Notch 1 and 12 nM in the series with human Notch 3. Also, the half-life at 0.5 µM is at least 30 min in series [1] (setting [3]) and 38 min in series [1] (setting [4]).
The matching figures for `CCC[C@H](C(N)=O)[C@@H](CCC(F)(F)F)C(=O)N[C@H]1N=C(c2ccccc2)c2cccc(O)c2NC1=O` [Example 41, (2R,3S)—N-((3S)-9-Hydroxy-2-oxo-5-phenyl-2,3-dihydro-1H-1,4-benzodiazepin-3-yl)-3-propyl-2-(3,3,3-trifluoropropyl)succinamide]: 9.1 nM, 12.4 nM, at least 30 min and 45 min.
On to `NC(=O)[C@@H](CC1CC1)[C@@H](CCC(F)(F)F)C(=O)N[C@H]1N=C(c2ccccc2)c2cccc(Cl)c2NC1=O` [Example 42, (2R,3S)—N-((3S)-9-Chloro-2-oxo-5-phenyl-2,3-dihydro-1H-1,4-benzodiazepin-3-yl)-3-(cyclopropylmethyl)-2-(3,3,3-trifluoropropyl)succinamide], for which the IC50 in the series with human Notch 1 is 1.9 nM; in the series on human Notch 3 it was 3.5 nM. Moreover, the half-life at 0.5 µM in series [1] (setting [3]) was at least 30 min; in series [1] (setting [4]), 87 min.
The like results for `CCC[C@H](C(N)=O)[C@@H](CCC(F)(F)F)C(=O)N[C@H]1N=C(c2ccccc2)c2cccc(Cl)c2NC1=O` [Example 43, (2R,3S)—N-((3S)-9-Chloro-2-oxo-5-phenyl-2,3-dihydro-1H-1,4-benzodiazepin-3-yl)-3-propyl-2-(3,3,3-trifluoropropyl)succinamide] were, in that order, 3.3 nM, 4.8 nM, at least 30 min and 30 min.
In the case of `CC(C)[C@H](N)C(=O)OCN1C(=O)[C@@H](NC(=O)[C@H](CCC(F)(F)F)[C@H](CC2CC2)C(N)=O)N=C(c2ccccc2)c2cccc(F)c21` [Example 52, ((3S)-3-(((2R)-2-((1S)-2-Amino-1-(cyclopropylmethyl)-2-oxoethyl)-5,5,5-trifluoropentanoyl)amino)-9-fluoro-2-oxo-5-phenyl-2,3-dihydro-1H-1,4-benzodiazepin-1-yl)methyl L-valinate], in series [2], the “Antitumor Activity in TALL-1 (LCK), QD dosing” value is 5.7 and the “antitumor activity … in mice” value is given as “showed antitumor activity”.
